Laboratory results from patent publication US20180009797A1, “AZA-ARYL 1H-PYRAZOL-1-YL BENZENE SULFONAMIDES” (ChemoCentryx, Inc., priority 2016, published 2018).

Molecular target: T1, CCR(9) (Homo sapiens, UniProt P51686)
T1 construct: CCR(9)-expressing cells such as T cell line MOLT-4 cells; host or cells: MOLT-4 T cell line
T1 sequence (P51686 1-369): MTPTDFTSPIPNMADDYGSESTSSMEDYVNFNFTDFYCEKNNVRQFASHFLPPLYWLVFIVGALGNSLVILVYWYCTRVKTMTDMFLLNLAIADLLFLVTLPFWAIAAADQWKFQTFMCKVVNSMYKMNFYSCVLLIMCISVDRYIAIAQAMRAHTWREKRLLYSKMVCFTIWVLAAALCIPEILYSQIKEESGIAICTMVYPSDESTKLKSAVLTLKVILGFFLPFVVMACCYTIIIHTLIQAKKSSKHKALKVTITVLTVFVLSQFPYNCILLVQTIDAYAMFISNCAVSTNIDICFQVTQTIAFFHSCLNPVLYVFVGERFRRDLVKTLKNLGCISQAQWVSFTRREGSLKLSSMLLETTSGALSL
Assay: calcium mobilization assay (FLIPR, MOLT-4 cells, hTECK)
Format: cell-based
Settings: read-out: CCR(9) Ca^2+
Protocol: In calcium signaling assays used to determine the ability of a compound to interfere with binding between a chemokine receptor and a known chemokine ligand, chemokine receptor-expressing cells (CCR(9)-expressing cells such as T cell line MOLT-4 cells) are first incubated with a compound of interest, such as a potential chemokine antagonist, at increasing concentrations. The cell number can be from 10^5 to 5×10^6 cells per well in a 96-well microtiter plate. The concentration of the compound being tested may range from 0 to 100 μM. After a period of incubation (which can range from 5 to 60 minutes), the treated cells are placed in a Fluorometric Imaging Plate Reader (FLIPR®) (available from Molecular Devices Corp., Sunnyvale, Calif.) according to the manufacturer's instruction. The FLIPR® system is well known to those skilled in the art as a standard method of performing assays. The cells are then stimulated with an appropriate amount of the chemokine ligand (TECK for CCR(9)) at 5-100 nM final concentration, and the signal of intracellular calcium increase (also called calcium flux) is recorded. The efficacy of a compound as an inhibitor of binding between the chemokine and the ligand can be calculated as an IC50 (the concentration needed to cause 50% inhibition in signaling) or IC90 (at 90% inhibition).
MOLT-4 cells were obtained from the American Type Culture Collection (Manassas, Va.) and cultured in RPMI tissue culture medium supplemented with 10% fetal calf serum (FCS) in a humidified 5% CO2 incubator at 37° C. Recombinant human chemokine proteins TECK was obtained from R&D Systems (Minneapolis, Minn.). ChemoTX® chemotaxis microchambers were purchased from Neuro Probe (Gaithersburg, Md.). CyQUANT® cell proliferation kits were purchased from Molecular Probes (Eugene, Oreg.). Calcium indicator dye Fluo-4 AM was purchased from Molecular Devices (Mountain View, Calif.).
A cytoplasmic calcium mobilization assay was used to determine the efficacy of potential receptor antagonists at blocking the signals mediated through chemokine receptors, such as CCR(9). This assay was routinely performed using the Fluorescent Imaging Plate Reader (FLIPR, Molecular Devices). MOLT-4 cells were labeled with the fluorescent-indicator dye Fluo-4 (Molecular Devices) according to the manufacturer's directions. After labeling, the cells were collected by centrifugation (400×g for 5 min at room temperature) and resuspended in HBSS to a cell density of 2.5×10^6 cells/mL. Test compounds were prepared in 100% DMSO at 100× the final concentration; generally, a range of concentrations of each compound were tested, with final concentrations from 0.1 nM to 10,000 nM. Labeled cells (300 μL) were mixed with compound or an equal volume of DMSO (3 μL) in a 96-well plate; after thorough mixing, 50 μL of this cell/compound mixture was added to each of four wells of a 384-well FLIPR plate. The chemokine agonist (i.e., hTECK), prepared in HBSS at a 5× concentration of the previously determined EC^50 concentration, was added to each well and resulting changes in the fluorescent intensity, indicative of chemokine receptor-mediated signaling, were recorded on the FLIPR.

SMILES	IC50 [nM]
Cc1cc(NS(=O)(=O)c2ccc3c(c2)CCC3(C)C)n(-c2cccc3ncccc23)n1	< 100
Cc1cc(NS(=O)(=O)c2ccc(C(C)(C)C)cc2)n(-c2ccc(N(C)C)c3ccccc23)n1	< 100
CC(C)(C)c1ccc(S(=O)(=O)Nc2cc(C(C)(F)F)nn2-c2cccc3ncccc23)cc1	< 100
Cc1cc(NS(=O)(=O)c2ccc(N3CCOCC3)cc2)n(-c2cccc3ncccc23)n1	< 100
CC(C)(C)c1ccc(S(=O)(=O)Nc2cc(CO)nn2-c2cccc3ncccc23)cc1	< 100
Cc1cc(NS(=O)(=O)c2ccc(C(C)(C)O)cc2)n(-c2cccc3ncccc23)n1	< 100
Cc1cc(NS(=O)(=O)c2ccc(C(C)(C)C)cc2)n(-c2cc3ccccc3cn2)n1	< 100
CC(C)(C)c1ccc(S(=O)(=O)Nc2cc(C(N)=O)nn2-c2cccc3ncccc23)cc1	100 to 1000
Cc1cc(NS(=O)(=O)c2ccc(C(C)(C)C)cc2)n(-c2ccc3ncccc3c2)n1	< 100
Cc1cc(NS(=O)(=O)c2ccc3c(c2)CC(C)(C)O3)n(-c2cccc3ncccc23)n1	< 100
Cc1cc(NS(=O)(=O)c2ccc(C(C)(C)C)cc2)n(-c2cccc3[nH]c(=O)ccc23)n1	< 100
CCOc1ccc(S(=O)(=O)Nc2cc(C)nn2-c2cccc3ncccc23)cc1	< 100
Cc1cc(NS(=O)(=O)c2ccc(C3(C#N)CC3)cc2)n(-c2cccc3ncccc23)n1	< 100
Cc1cc(NS(=O)(=O)c2ccc(C(C)(C)C)cc2)n(-c2cccc3nccc(C)c23)n1	< 100
CC(C)(C)c1ccc(S(=O)(=O)Nc2cc(C(F)(F)F)nn2-c2cccc3cccnc23)cc1	> 1000
Cc1cc(NS(=O)(=O)c2ccc(N3CCOCC3)c(F)c2)n(-c2cccc3ncccc23)n1	< 100
Cc1cc(NS(=O)(=O)c2ccc(C(C)(C)C)cc2)n(Cc2cccc3cnccc23)n1	< 100
Cc1nn(-c2cccc3ncccc23)c(NS(=O)(=O)c2ccc(C(C)(C)C)cc2)c1F	< 100
Cc1cc(NS(=O)(=O)c2ccc(OC(C)(C)C)cc2)n(-c2cccc3ncccc23)n1	100 to 1000
CC(C)(C)c1ccc(S(=O)(=O)Nc2cc(CC#N)nn2-c2cccc3ncccc23)cc1	< 100
Cc1cc(NS(=O)(=O)c2ccc(C(C)(C)C)cc2)n(-c2cccc3cnncc23)n1	> 1000
Cc1cc(NS(=O)(=O)c2ccc3c(c2)CCC(C)(C)O3)n(-c2cccc3ncccc23)n1	< 100

SMILES	IC50 [nM]
CC(C)(C)c1ccc(S(=O)(=O)Nc2cc(C(F)(F)F)nn2-c2ncnc3ccccc23)cc1	< 100
Cc1cc(NS(=O)(=O)c2ccc(C(C)(C)C)cc2)n(-c2c(C)ccc3ncccc23)n1	< 100
Cc1cc(NS(=O)(=O)c2ccc(C(C)(C)C)cc2)n(-c2ccc3ccccc3c2)n1	< 100
Cc1cc(NS(=O)(=O)c2ccc(C(C)(C)C)cc2)n(Cc2cccc3ncccc23)n1	100 to 1000
CC(C)c1ccc(S(=O)(=O)Nc2cc(C(C)(F)F)nn2-c2cccc3ncccc23)cc1	< 100
COc1ccc2ncccc2c1-n1nc(C)cc1NS(=O)(=O)c1ccc(C(C)(C)C)cc1	< 100
Cc1cc(NS(=O)(=O)c2ccc(C(C)(C)C)cc2)n(-c2ncc(C)c3ccccc23)n1	< 100
CC(C)c1cc(NS(=O)(=O)c2ccc(C(C)(C)C)cc2)n(-c2cccc3ncccc23)n1	100 to 1000
COc1cc(C(C)(C)C)ccc1S(=O)(=O)Nc1cc(C)nn1-c1cccc2ncccc12	< 100
Cc1cc(NS(=O)(=O)c2ccc(C(C)(C)C)cc2)n(-c2ccc(Cl)c3nccc(C)c23)n1	< 100
Cc1cc(NS(=O)(=O)c2ccc(C(C)(C)C)cc2)n(-c2ccnc3ccc(F)cc23)n1	< 100
Cc1cc(NS(=O)(=O)c2ccc(C(C)(C)C)cc2)n(-c2ccc3ccccc3n2)n1	100 to 1000
Cc1cc(NS(=O)(=O)c2ccc(C(C)(C)C)cc2C)n(-c2cccc3ncccc23)n1	100 to 1000
Cc1cnc2cccc(-n3nc(C)cc3NS(=O)(=O)c3ccc(C(C)(C)C)cc3)c2c1	100 to 1000
Cc1cnc2c(Cl)ccc(-n3nc(C)cc3NS(=O)(=O)c3ccc(C(C)(C)C)cc3)c2c1	< 100
COc1ccc(S(=O)(=O)Nc2cc(C)nn2-c2cccc3ncccc23)cc1	100 to 1000
CC(C)Oc1ccc(S(=O)(=O)Nc2cc(C(C)(F)F)nn2-c2cccc3ncccc23)cc1	< 100
CCc1ccc(S(=O)(=O)Nc2cc(C)nn2-c2cccc3ncccc23)cc1	< 100
Cc1cc(NS(=O)(=O)c2ccc(C(C)(C)C)cc2)n(-c2ncnc3ccccc23)n1	< 100
CC(C)(C)c1ccc(S(=O)(=O)Nc2cc(C3CC3)nn2-c2cccc3ncccc23)cc1	< 100
CC(C)(C)c1ccc(S(=O)(=O)Nc2c3c(nn2-c2cccc4cnccc24)CCC3)cc1	< 100
